System: MsGH13
Assay: UV/Vis release of 4-nitrophenolate at […] nm
Format: biochemical, Marinovum sp.
Conditions: 50 mM citric acid/phosphate, 150 mM NaCl, pH 6.5, 25 °C

In the case of `O=[N+]([O-])c1ccc(O[C@H]2O[C@H](CO)[C@@H](O)[C@H](O)[C@H]2O)cc1` [PNPGlc], the Km is reported as 950 ± 470 µM.
